Measured values: patent US20210052580A1 (ST IP Holding AG, priority 2018, published 2021)
Converted amounts (≈) assume the structure as drawn. Where two headings read alike, the source gives them in different places.

Columns and labels:
[1] = system: primary human gingival epithelial cells (HGEPp); assay: TACS MTT cell viability assay, H2O2-induced oxidative stress; format: cell-based
Description: Pooled primary HGEPps were propagated in CnT-Prime epithelial culture medium provided by CellnTec on 100 mm petri dishes coated with 30 mg/ml Type I rat tail collagen (BD Biosciences) diluted in Dulbecco's phosphate-buffered saline (DPBS). […] The cells were harvested when they reached 70-90% confluency as observed by light microscopy. For routine cultivation, the medium was changed every 3 days. For both the cell viability and ROS assays, the cells from passages 3-7 were seeded at 5×10 3, 2.5×10 4, 5×10^4 cells/cm 2 density to grow cell monolayers in 24-well flat-bottomed tissue culture plates and acclimated overnight at 37° C.
Preparation of Dosing Solutions • 1. Recrystallized oltipraz was received as a powder from Supportive Therapeutics and a 100 mM DMSO stock was prepared. Further dilutions were prepared in DMSO from the 100 mM DMSO stock and each DMSO dilution was then added into 10 mL of Dulbecco's phosphate-buffered saline to arrive at final concentrations of 10, 50, and 100 μM. • 2. The Normal (Control) group contained saline with the same percentage of DMSO as the treated group. • 3. All dosing solutions contained 0.3% of DMSO which is well below the maximum tolerated DMSO percent of 0.8% for HGEPp cells. • 4. Formulated oltipraz crystals and control powder were received as a powder and a 500 mM DMSO stock solution was prepared for each powder. • 5.
Cell Survival Assay (TACS MTT Kit) • 1. Plate cell concentration was selected to be 6.25×10^5/ml to yield an OD absorbance within the linear portion of the control curve. • 2. Once the HGEPp cells were cultured and ready on the microplate, the media was removed from all the wells and discarded. The cells were washed gently with DPBS 2-3 times and the last wash removed and discarded. • 3. Added 10 ul of MTT reagent to each well. • 4. Incubated the plate for 6 hours at 37° C. Viewed the cells to confirm the appearance of intracellular precipitate using an inverted microscope. • 5. Added 100 ul of Detergent Reagent to all wells, including the control wells taking care not to shake the plates • 6. Left the plate covered in the dark at room temperature overnight. • 7. Removed the plate cover and measured the absorbance of the wells, including the blanks at 570 nm. • 8. Determined the average values from triplicate readings after subtracting the average value for the blanks.
HGEPp cells were exposed to different concentrations of H2O2 for 4 h to examine H2O2-induced oxidative stress. The cells were exposed to 0-0.6 mM H2O2 for 4 h and cell viability was evaluated using the TACS MTT Cell Proliferation Assay Kit. The percentage of cell survival was determined using the ratio of the optical density (OD) of the test sample to the OD of the control×100%. […] The data is mean+/−SD of 3 experiments in 6 replicate wells.
Normal control cells were cultured in DPBS containing 0.3% DMSO. Positive Control (PC): oxidative stressed group cells after treatment with 0.3 mM H2O2 for 4 h. […] The percentage of cell survival was determined by the ratio of the optical density (OD) of the test samples to the OD of the control×100%.
Pooled primary HGEPp's were propagated in CnT-Prime epithelial culture medium provided by CellnTec on 100 mm petri dishes coated with 30 mg/ml Type I rat tail collagen (BD Biosciences) diluted in Dulbecco's phosphate-buffered saline (DPBS). […] The cells were harvested when they reached 70-90% confluency as observed by light microscopy. For routine cultivation, the medium was changed every 3 days.

[2] = system: rat cortical neurons; format: cell-based; settings: MK801 10 μM
Description: The objective of the experiments in this Example was to explore the protective effects of three compounds in the neurotoxicity induced by oxygen glucose deprivation. A multiparametric cell-based protocol is used in this Example in order to determine the mechanisms of action. The assay was applied to “freshly isolated” rat cortical neurons cultured in 96-well-plates and exposed to the compounds at 100 μg/ml. Moreover, some cells were treated with the compounds in addition with atovaquone (100 μg/ml).
In vitro ischemic injury was induced in rat primary neuronal culture by oxygen-glucose deprivation for 2 hours. Neurons were incubated with the compounds during 1 hour eighteen hours prior to the OGD induction. MK801 10 μM was used as positive neuroprotection control. After the treatments, supernatants were collected for measuring extracellular LDH levels (plasma membrane integrity determination) and cells were simultaneously incubated with three optically compatible fluorescent dyes, and subsequently analyzed with BD Pathway 855 (Becton Dickinson). Cell parameters associated with nuclear morphology, mitochondrial damage and caspase 3/7 activation-indicative of prelethal cytotoxic effects and representative of different mechanism of toxicity-were measured by HCS at single cell level. Finally, cells were fixed and stained with beta III tubulin antibody for measuring the neurite outgrowth.
Primary cultures of cortical neurons were isolated from cerebral cortices of Sprague-Dawley rat foetuses at embryonic day 18. Brains were removed and after removing the meninges, the tissues were dissected under a binocular microscope. Neurons were enzymatically dispersed by trypsin 0.2% and DNAse […] digestion for 10 min at 37° C., plated in poly-L-lysine wells and incubated with B27 supplemented neurobasal medium.
Cortical neurons of 18 days old embryonic rats were plated in poly-l-lysine coated 96-well plates (30.000 cells per well). Cells were maintained in neurobasal medium supplemented with B-27 component for 5 days at 37° C. in a humidified 5% CO2 atmosphere. At day 5, cells were subjected to oxygen glucose deprivation (OGD) for 2 hours at 37° C. The cultures were placed in an aerobic chamber (Billops-Rothenberg) and incubated in neurobasal medium lacking glucose and B27 factor, and aerated with an anaerobic gas mixture (94.7% N2, 5% CO2, 0.3% O2) to remove residual oxygen. Control cultures were kept in the original neurobasal medium but were submitted to the anaerobic conditions. At the end of the OGD conditions, the cells were removed from the anaerobic chamber, the OGD medium was replaced with neurobasal medium containing glucose, and the cells were incubated for an additional 24 h. The test compounds were added to the neurons eighteen hours prior to the OGD induction and maintained for 1 h. Replicate cultures were treated as described above with MK801 as positive control of neuroprotection.
Compound neuroprotective potential was determined by HCS analysis, which included the following endpoints: plasma membrane integrity, cell viability, alterations of mitochondrial membrane potential, caspase 3/7 activation and neurite outgrowth.
(§1) To determine the integrity of the plasma membrane, supernatants were collected 24 h after treatments and LDH assay was performed following manufacturer's instructions.
(§2) Cell number was determined by hoechst 33342 nucleic acid staining. This dye allows a sensitive cell number determination by fluorescence microscopy. Cells were stained with 5 μg/ml, washed 3 times and measured at 380 nm/460 nm Ex/Em.
Mitochondrial activity was determined using TMRM, a lipophilic cationic fluorescent probe that freely crosses the plasma membrane and accumulates within mitochondria, depending on their membrane potential. Cells were stained with 50 nM tetramethyl rhodamine methyl ester-TMRM, washed 3 times and measured at 555 nm/645 nm Ex/Em. TMRM fluorescence intensity in cytosolic regions around the nucleus was registered. […]

[3] = system: primary human gingival epithelial cells (HGEPp); assay: OxiSelect intracellular ROS assay, H2O2-treated cells; format: cell-based
Description: 2. measure the effect of recrystallized oltipraz and formulated oltipraz on hydroxyl, peroxyl and other reactive oxygen species within HGEPp cells, using Cell Biolabs' OxiSelect™ Intracellular ROS Assay Kit. This assay employs the cell-permeable fluorogenic probe 2′,7′-dichlorodihydrofluorescin diacetate (DCFH-DA) which diffuses into cells and is deacetylated by cellular esterases to a nonfluorescent DCFH which is then rapidly oxidized to highly fluorescent 2′,7′-dichlorodihydrofluorescein (DCF) by ROS.
Prepared and mixed all reagents thoroughly before use. […] Once the HGEPp cells were cultured and ready on a microplate, the media was removed from all the wells and discarded. Washed the cells gently with DPBS 2-3 times. Removed the last wash and discarded it. • 3. Added 100 μL of 1×DCFH-DA/media solution to the cells. […] Fluorescence was read on a Fluorescence Plate Reader after 1 hour. […] Transferred 150 μL of the mixture to a fresh 24-well plate for fluorescence measurements at 530 nm. […]
Intracellular ROS was measured using a Spectramax M3 microplate reader.
Prepared and mixed all reagents thoroughly before use. […] Once the HGEPp cells were cultured and ready on a microplate, the media was removed from all the wells and discarded. […] Transferred 150 μL of the mixture to a fresh 24-well plate for fluorescence measurements at 530 nm.
Intracellular ROS was measured using a Spectramax M3 microplate reader. […]

[4] = system: male Syrian Golden Hamsters
Description: Twenty-four (24) male Syrian Golden Hamsters were used in the study. Mucositis was induced by giving an acute radiation dose of 40 Gy directed to the left buccal cheek pouch on Day 0. Mucositis was evaluated clinically starting on Day 6 and continuing on alternate days until Day 28.
Mucositis was scored visually by comparison to a validated photographic scale, ranging from 0 for normal, to 5 for severe ulceration (clinical scoring). In descriptive terms, this scale is defined as described in Table 7 below: […]
A mucositis score of 3 or greater indicates ulcerative mucositis, a clinically significant threshold.
Statistical significance of observed differences was calculated using chi-squared analysis.
An analysis of the severity of mucositis was performed using the Mann-Whitney rank sum analysis to compare the visual mucositis scores for Groups 2 and 3 to the vehicle control group (Group 1) on each day of the analysis. In this analysis, 2 consecutive days of significant reduction in the mucositis score are generally required before it is regarded as clinically meaningful.
The significance of group differences observed in daily mucositis scores was determined using the Mann-Whitney rank sum test. This nonparametric statistic is appropriate for the visual mucositis scoring scale. The p-values for each calculation are shown. “x” denotes significant difference in mucositis scores. “y” denotes increase in comparison to vehicle Group (improvement). “z” denotes decrease.
“y” denotes an increase in comparison to vehicle Group, “z” denotes decrease (improvement).

[5] = physchem; settings: 20 °C, thermodynamic from solid
[6] = system: mouse cardiomyocytes; format: cell-based; settings: NAC 100 μM
Description: In vitro ischemic injury was induced in mouse neonatal primary cardiomyocyte culture by oxygen-glucose deprivation for 18 hours. Cardiomyocytes were incubated with two concentrations of the compounds during 4 hours prior to the OGD induction. The test compounds were also present during the OGD insult and 24 h-recovery period. NAC was used as positive control of cardioprotection. After treatments, cell viability was measured with WST-8 and ATP, and supernatants were collected to measure LDH for studying plasma membrane integrity. Cells were simultaneously loaded with two fluorescent dyes showing optical compatibility, and were then analyzed with BD Pathway 855 (Becton Dickinson). By using the technology of HCS, cell parameters associated with nuclear morphology and caspase 3/7 activation (indicative of pre-lethal cytotoxic effects and representative of different mechanism of toxicity) were measured at the single cells level, which allows high-throughput screening. Data were expressed as means±SD of three separate wells and individual comparisons were made with Student's test (SigmaPlot 9.0 program).
Primary cultures of cardiomyocytes were prepared from the hearts of Swiss mouse neonates P0-P2. Hearts were removed and enzymatically dissociated following instructions from Neonatal heart Dissociation Kit of Miltenyi Biotec. Then cardiomyocytes were isolated following also the instructions of Miltenyi biotec. Briefly, cells were isolated by depletion of non-target cells. Non-target cells (fibroblasts and endothelial cells) are directly magnetically labeled with a cocktail of monoclonal antibodies conjugated with MACS microbeads. The magnetically labeled non-target cells were depleted by retaining them within an MCS column in the magnetic fields of a MACS separator, while the unlabeled cardiomyocytes passed through the column. Then, cardiomyocytes were counted and plated on fibronectin-coated wells with cardiac myocyte complete medium (1% CMGS component, 1% penicillin/streplomycina and 5% FBS).
Cardiomyocytes from P0-P2 days mice were plated in fibronectin coated 96-well plates with a number of 30.000 cells per well. Cells were maintained in cardiac myocyte complete medium (Cardiac myocyte medium, growth factors, 5% FBS, 1% penicillin/streptomycin) for 1 day at 37° C. in a humidified 5% CO2 atmosphere. At day 2, cells were washed and treated with compounds in complete medium 4 h prior to being subjected to oxygen glucose deprivation for 18 hours at 37° C. The cultures were placed in an aerobic chamber (Billops-Rothenberg) and incubated with DMEM medium lacking glucose and growth factors, and aerated with an anaerobic gas mix (94.7% N2, 5% CO2, 0.3% O2) to remove residual oxygen. Control cells were kept in the original cardiac myocyte medium but under anaerobic conditions. At the end of the OGD insult the cells were removed from the anaerobic chamber, the OGD medium was replaced with cardiac myocyte medium containing glucose without growth factors, and the cells were incubated for additional 24 h. The test compounds were also present during the OGD insult and the recovery period. Some cells were treated as described above with NAC 100 μM as positive control of cardioprotection.
as §1, §2
Caspase 3/7 activation was determined using The CellEvent® Caspase-3n Green Detection Reagent which is intrinsically a non-fluorescent peptide that inhibits the ability of the dye to bind to DNA. However, after […] activation in apoptotic cells, the peptide is cleaved allowing the dye to bind to DNA producing a bright, fluorogenic response. […]

[7] = Examples 10, 11, 12.5-800 μg/mL, procedure of Example 9
[8] = entire study duration, of 192 animal days

## CN(C)C(=N)N=C(N)N [Metformin]
[1]; [7]
  effect on proliferation/survival of H2O2-induced oxidatively stressed HGEPp cells: little or no impact

## C[C@]12N[C@H](Cc3ccccc31)c1ccccc12 [MK801]
[2]
  normalization of plasma membrane integrity (LDH release): 33%
[2]; 24 h after OGD
  prevention of OGD-induced apoptosis (caspase 3/7 activation): 25%
  prevention of OGD-induced mortality (cell number, hoechst 33342): 26%
[2]; 24 hours post-exposure
  re-establishment of mitochondrial membrane potential (TMRM): 13%
[2]; average length, beta III tubulin
  re-establishment of neurite outgrowth affected by OGD: 94%
[2]; Table 16
  CASPASE score: 1 (1 (variation 20-40%))
  HOECHST score (cell number): 1 (1 (variation 20-40%))
  LDH score: 1 (1 (variation 20-40%))
  Neurite score: 3 (3 (variation 60-100%))
  Neuroprotection degree: moderate (moderate (5-7))
  TMRM score: 0 (0 (no neuroprotection or variation lower than 20%))
  Total (sum of individual scores): 6

## O=C1C(O)=C([C@H]2CC[C@H](c3ccc(Cl)cc3)CC2)C(=O)c2ccccc21 [Atovaquone, trans-2-[4-(4-chlorophenyl)cyclohexyl]-3-hydroxy-1,4-naphthalenedione]
[1]; Example 9, all doses tested 12.5-800 μg/mL (each), 24 hr pretreatment, 0.3 mM H2O2 4 h
  effect on proliferation/survival of H2O2-induced oxidatively stressed HGEPp cells: no impact
[3]; Example 9, 50, 100, 200 μg/mL, 24 hr pretreatment
  effect on ROS levels in H2O2 challenged HGEPp cells: does not change ROS levels

## Cc1c(-c2cnccn2)ssc1=S [Neat oltipraz, 4-methyl-5-(pyrazin-2-yl)-3H-1,2-dithiole-3-thione]
[1]; Example 7, 50 to 800 μg/ml, 24 h pretreatment, then 0.3 mM H2O2 4 h
  effect on H2O2-induced decrease in HGEPp survival: promoted cell proliferation and reduced H2O2-induced decrease in HGEPp survival
[4]; 40 Gy Day 0, 5 mg/mL, 0.2 mL topical BID, Days −3 to 28
  day of peak mean mucositis score: 16 days
[4]; 40 Gy Day 0, 5 mg/mL, 0.2 mL topical to left cheek pouch BID, Days −3 to 28
  peak mean mucositis score: 3.25±0.11
[4]; Day 6
  Percent Ulceration by Day (Score ≥3): 0.0%
[4]; Day 8
  Percent Ulceration by Day (Score ≥3): 0.0%
[4]; Day 10
  Percent Ulceration by Day (Score ≥3): 0.0%
[4]; Day 12
  Percent Ulceration by Day (Score ≥3): 50.0%
[4]; Day 14
  Percent Ulceration by Day (Score ≥3): 100.0%
[4]; Day 16
  Percent Ulceration by Day (Score ≥3): 100.0%
[4]; Day 18
  Percent Ulceration by Day (Score ≥3): 100.0%
[4]; Day 20
  Percent Ulceration by Day (Score ≥3): 100.0%
[4]; Day 22
  Percent Ulceration by Day (Score ≥3): 100.0%
[4]; Day 24
  Percent Ulceration by Day (Score ≥3): 50.0%
[4]; Day 26
  Percent Ulceration by Day (Score ≥3): 25.0%
[4]; Day 28
  Percent Ulceration by Day (Score ≥3): 25.0%
[4]; entire study duration
  % Days ≥3: 54.17%
[4]; [8]
  Days <3 (animal days with mucositis score <3): 88
  Days ≥3 (animal days with mucositis score ≥3): 104
[3]; Example 7, 100 ug/ml and 200 ug/ml, 24 h pretreatment, P<0.05 versus PC
  effect on ROS levels in H2O2 treated HGEPp cells: significantly reduced ROS levels
[5]; 2% simulated intestinal fluid, fassgf or other biorelevant
  solubility: 15.8 µg/mL (≈ 69.8 µM)
[5]; water
  solubility: 3.1 µg/mL (≈ 13.7 µM)

## OO [H2O2, hydrogen peroxide]
[1]; 0.3 mM H2O2, 4 h
  reduction in cell number: 48%

## CC(=O)N[C@@H](CS)C(=O)O [NAC]
[6]
  normalization of OGD-induced LDH release: 26%
  prevention of OGD-induced apoptosis (caspase 3/7): 31%
  protection against OGD-induced reduction in ATP levels: 21%
[6]; 24 h after exposure
  prevention of OGD-induced mortality (cell number): 21%
[6]; Table 18
  ATP score: 1 (1 (variation 20-40%))
  CASPASE score: 1 (1 (variation 20-40%))
  HOECHST score (cell number): 1 (1 (variation 20-40%))
  LDH score: 1 (1 (variation 20-40%))
  Neuroprotection degree: Moderate
  Total (sum of individual scores): 4

## COc1ccc2cc3[n+](cc2c1OC)CCc1cc2c(cc1-3)OCO2 [Berberine]
[1]; [7]
  effect on proliferation/survival of H2O2-induced oxidatively stressed HGEPp cells: little or no impact
